The structures appear in SMILES notation. Where a name gives a salt, the structure may show the parent alone. Non-standard residues stand in square brackets, D forms with d. Residues, ends and D or L forms follow the SMILES beside them. *: point of attachment. Sta = CC(C)C[C@H](N)[C@@H](O)CC(=O)O; Isovaleryl = CC(C)CC(=O)*

Usually CC50 stands for the concentration giving 50% cytotoxicity. A lower CC50 goes with greater toxicity to the cells.

The nature of one data set: in vitro. The following applies: rat, gh3-tre-luc cells, AC50 (uM) modified / 1000.
As for `CCCCC(=O)O` [Pentanoic acid], the CC50 at 24 h was over 90 µM.

Take `O=C(O)CN(CCN(CC(=O)O)CC(=O)O)CCN(CC(=O)O)CC(=O)O` [Pentetic acid]: the CC50 at 24 h is 25 µM.

Consider `OCC1(CO)COC(C(Cl)(Cl)Cl)OC1` [Penthrichloral], for which the CC50 at 24 h is over 50 µM.

As for `CN[C@@H]1[C@@H](O)[C@@H](O[C@@H]2[C@H](O)[C@H](O[C@H]3OC(CN)=CC[C@H]3N)[C@@H](N)C[C@H]2N)OC[C@]1(C)O` [Pentisomicin], the CC50 at 24 h is over 50 µM.

With `CCCC(C)C1(CC)C(=O)NC(=O)NC1=O` (stereo not shown) [Pentobarbital], the CC50 at 24 h is over 50 µM.

With `C[N+]1(CCCCC[N+]2(C)CCCC2)CCCC1` [Pentolinium ditartrate], the CC50 at 24 h was over 50 µM.

In turn, `OC[C@H]1O[C@@H](n2cnc3c2NC=NC[C@H]3O)C[C@@H]1O` [Pentostatin] showed a CC50 at 24 h of over 50 µM.

The compound `CC(=O)CCCCn1c(=O)c2c(ncn2C)n(C)c1=O` [Pentoxifylline] gave a CC50 at 24 h of over 20 µM.

In turn, `CCCCCOC(C)=O` [Pentyl acetate] displayed a CC50 at 24 h of over 90 µM.

For the compound `CCCCCOC(=O)CCC` [Pentyl butyrate], the CC50 at 24 h was over 90 µM.

Turning to `CCCCCOC(=O)CCCCC` [Pentyl hexanoate], the CC50 at 24 h was over 90 µM.

For the compound `CCCCCSCCCCC` [Pentyl sulfide], the CC50 at 24 h is over 90 µM.

The compound `CCCCCOC(=O)CCCC` [Pentyl valerate] came in with a CC50 at 24 h of over 90 µM.

`CCCCCC(C=O)=Cc1ccccc1` [Pentylcinnamaldehyde] had a CC50 at 24 h of over 90 µM.

As for `C1CCc2nnnn2CC1` [Pentylenetetrazol], the CC50 at 24 h was over 50 µM.

In turn, `CCCCCOC(=O)c1ccc(O)cc1` [Pentylparaben] came in with a CC50 at 24 h of 67.4 µM. This counts as double-digit micromolar.

For the compound `Cc1c(N)nc([C@H](CC(N)=O)NC[C@H](N)C(N)=O)nc1C(=O)N[C@H](C(=O)N[C@H](C)[C@@H](O)[C@H](C)C(=O)N[C@H](C(=O)NCCc1nc(-c2nc(C(=O)NCCCN[C@@H](C)c3ccccc3)cs2)cs1)[C@@H](C)O)[C@@H](O[C@@H]1O[C@@H](CO)[C@@H](O)[C@H](O)[C@@H]1O[C@H]1O[C@H](CO)[C@@H](O)[C@H](OC(N)=O)[C@@H]1O)c1c[nH]cn1` [Peplomycin sulfate], half-maximal cytotoxicity (CC50 at 24 h) was put at 2.77 µM.

`CC(C)CC(=O)N[C@H](C(=O)N[C@H](C(=O)N[C@@H](CC(C)C)[C@@H](O)CC(=O)N[C@@H](C)C(=O)N[C@@H](CC(C)C)[C@@H](O)CC(=O)O)C(C)C)C(C)C` [Pepstatin] (Isovaleryl-VV[Sta]A[Sta]-OH) showed a CC50 at 24 h of over 50 µM.

With `CN1CCN(CCCN2c3ccccc3Sc3ccccc32)CC1` [Perazine], the CC50 at 24 h was 16.5 µM.

Consider `FC(F)(F)C(F)(F)C(F)(F)C(F)(F)C(F)(F)F` [Perflenapent], for which the 50% cytotoxic concentration (CC50) at 24 h was over 50 µM.

With `FC(F)(F)C(F)(F)C(F)(F)C(F)(F)C(F)(F)C(F)(F)F` [Perflexane], the CC50 at 24 h is over 50 µM.

The compound `FC1(F)C(F)(F)C(F)(F)C2(F)C(F)(F)C(F)(F)C(F)(F)C(F)(F)C2(F)C1(F)F` (stereo not shown) [Perflunafene] came in with a CC50 at 24 h of over 50 µM.

The compound `O=C(O)C(F)(F)C(F)(F)C(F)(F)C(F)(F)C(F)(F)C(F)(F)C(F)(F)C(F)(F)F` [Perfluorononanoic acid] registered a CC50 at 24 h of over 90 µM.

`NS(=O)(=O)C(F)(F)C(F)(F)C(F)(F)C(F)(F)C(F)(F)C(F)(F)C(F)(F)C(F)(F)F` [Perfluorooctanesulfonamide]: the CC50 at 24 h came to 52.8 µM.

`CCCN1C[C@H](CSC)C[C@@H]2c3cccc4[nH]cc(c34)C[C@H]21` [Pergolide methanesulfonate] showed a CC50 at 24 h of over 50 µM.

As for `C1CCC(C(CC2CCCCN2)C2CCCCC2)CC1` (stereo not shown) [Perhexiline maleate], half-maximal cytotoxicity (CC50 at 24 h) was put at 4.32 µM.

As for `N#Cc1ccc2c(c1)N(CCCN1CCC(O)CC1)c1ccccc1S2` [Periciazine], it took 14.3 µM to reach half-maximal cytotoxicity (CC50 at 24 h).

Compound `CCCCCCCCCCCCCCCCCCOP(=O)([O-])OC1CC[N+](C)(C)CC1` [Perifosine] gave a CC50 at 24 h of over 20 µM.

Compound `CCC[C@H](N[C@@H](C)C(=O)N1[C@H](C(=O)O)C[C@@H]2CCCC[C@@H]21)C(=O)OCC` [Perindopril] came in with a CC50 at 24 h of over 50 µM.

The compound `OC(CN1CCCCC1)c1cc(-c2ccccc2)on1` (stereo not shown) [Perisoxal citrate] returned a CC50 at 24 h of over 50 µM.

`CN1CCN(C2=Nc3ccccc3Cc3ccccc32)CC1` [Perlapine] came in with a CC50 at 24 h of 25.9 µM.

In the case of `CC1(C)C(C=C(Cl)Cl)C1C(=O)OCc1cccc(Oc2ccccc2)c1` (stereo not shown) [Permethrin], the CC50 at 24 h is over 90 µM.

Consider `O=C1[C@H]2CCCC[C@H]2C(=O)N1CCCCN1CCN(c2nsc3ccccc23)CC1` [Perospirone hydrochloride], for which the midpoint of cytotoxicity, the CC50 at 24 h, lay at 21 µM.

As to `OCCN1CCN(CCCN2c3ccccc3Sc3ccc(Cl)cc32)CC1` [Perphenazine], it took 4.46 µM to reach half-maximal cytotoxicity (CC50 at 24 h).

For `CN1CCN(C(=O)C2CCCCC2)CC1` [Pexantel], the CC50 at 24 h is over 50 µM.

Compound `O=C1C(=O)c2ncccc2-c2cccnc21` [Phanquinone] displayed a CC50 at 24 h of 1.78 µM.

For `CCn1nc(C)c2c1C(=O)NCC(c1ccc(O)cc1)=N2` [PharmaGSID_47263], the CC50 at 24 h was over 90 µM.

As to `CCc1cc(SCc2sc(-c3ccc(C(F)(F)F)cc3)nc2CN2CCN(c3ccc(OC)cc3)CC2)ccc1OCC(=O)O` [PharmaGSID_47315], the CC50 at 24 h is 22.4 µM.

`CC(C)(O)c1cnn2c(-c3ccc(F)c(-c4c(F)cccc4C#N)c3)cnc2n1` [PharmaGSID_47330] yielded a CC50 at 24 h of over 90 µM.

Take `Cc1ncc([C@@H](CCCCCCc2ccc3c(n2)NCCC3)CC(=O)O)cn1` [PharmaGSID_47333]: the CC50 at 24 h was over 90 µM.

`CCOc1cccc(-n2cc(C(=O)N3CCN(c4cc(C(=O)O)c5ccccc5c4)CC3)nc2-c2ccc(C)cc2)c1` [PharmaGSID_47337]: the CC50 at 24 h is 77.9 µM.

In turn, `COc1cc(C=O)cc2c1[C@H](COC(N)=O)[C@]1(OC(C)=O)ON2C[C@H]2[C@@H]1N2C(C)=O` [PharmaGSID_48166] gave a CC50 at 24 h of 1.23 µM.

For `O=C1c2ccccc2C(=O)N1CCc1noc(-c2ccc(CN3CCCCCC3)s2)n1` [PharmaGSID_48172], the CC50 at 24 h is over 80 µM.

Consider `Cc1[nH]nc2c1N=C(c1ccccc1Cl)c1cc([N+](=O)[O-])ccc1N2` [PharmaGSID_48505], for which it took 39.4 µM to reach half-maximal cytotoxicity (CC50 at 24 h). That is a double-digit micromolar value.

On to `Cn1c(=O)cc(Oc2ccc(F)cc2F)c2cnc(NCC(C)(C)O)nc21` [PharmaGSID_48507], for which the 50% cytotoxic concentration (CC50) at 24 h is over 90 µM.

Compound `CCCN(C1CCN(C(=O)C2CCNCC2)CC1)[C@@H]1CCc2ccc(OC)cc2C1` [PharmaGSID_48509] gave a CC50 at 24 h of 69.1 µM.

`O=C(O)c1cccc(N(Cc2cccnc2)c2ccc(OC(F)F)c(OC(F)F)c2)c1` [PharmaGSID_48510] had a CC50 at 24 h of 75.3 µM.

Regarding `COc1cc(C(=O)NC2CCN(C)CC2)ccc1Nc1ncc2c(n1)N(C1CCCC1)CC(F)(F)C(=O)N2C` [PharmaGSID_48511], the CC50 at 24 h is 1.83 µM.

`Cc1cc(F)ccc1-c1cc(N2CC[C@@H](O)[C@H]2CO)ncc1N(C)C(=O)C(C)(C)c1cc(C(F)(F)F)cc(C(F)(F)F)c1` [PharmaGSID_48513]: the CC50 at 24 h amounted to 12.5 µM.

Consider `COc1ccc(/C=C/S(=O)(=O)NC(=O)c2ccc(C)cc2Cl)cc1` [PharmaGSID_48514], for which the CC50 at 24 h was over 90 µM.

As to `O=C(NS(=O)(=O)/C=C/c1ccccc1)c1ccc(F)cc1Cl` [PharmaGSID_48516], the CC50 at 24 h was over 90 µM.

As to `O=C(NS(=O)(=O)/C=C/c1cccs1)c1ccc(F)cc1Br` [PharmaGSID_48518], the CC50 at 24 h is over 90 µM.

The compound `CN1C(=O)N(c2ccccc2Br)Cc2cnc(Nc3ccc4c(c3)OCC(CO)O4)nc21` (stereo not shown) [PharmaGSID_48519] registered a CC50 at 24 h of 37.2 µM.

Compound `CCCC[C@H]1CN(CC2CCOCC2)C(=O)OC12CCN(C1(C)CCN(C(=O)c3c(C)ncnc3C)CC1)CC2` [PharmaGSID_48521] returned a half-maximal cytotoxic concentration (CC50) at 24 h of over 80 µM.

The compound `CCOc1ccc(/N=C(\C)Nc2ccc(OCC)cc2)cc1` [Phenacaine] returned a CC50 at 24 h of over 50 µM.

Regarding `NC(=O)NC(=O)Cc1ccccc1` [Phenacemide], the CC50 at 24 h was over 50 µM.

As to `CCOc1ccc(NC(C)=O)cc1` [Phenacetin], the CC50 at 24 h was over 50 µM.

Compound `c1ccc2c(c1)ccc1ccccc12` [Phenanthrene] registered a CC50 at 24 h of over 90 µM.

Compound `Cc1cc(=O)n(-c2ccccc2)n1C` [Phenazone] gave a CC50 at 24 h of over 50 µM.

`CC(Oc1ccccc1)C(=O)N[C@@H]1C(=O)N2[C@@H]1SC(C)(C)[C@@H]2C(=O)O` (stereo partly shown) [Phenethicillin potassium] returned a CC50 at 24 h of over 20 µM.

The same data set, now with this note: rat, gh3-tre-luc cells, AC50 (uM) modified / 1000, Tox21_110001=Tox21_112402; viability, 1 nM T3 present, 24 h.
The compound `CC(=O)OO` [Peracetic acid] gave a CC50 at 24 h of over 50 µM.

The same data set, now with this note: rat, gh3-tre-luc cells, AC50 (uM) modified / 1000, Tox21_110001=Tox21_202898; viability, 1 nM T3 present, 24 h.
As for `CCCCCON=O` [Pentyl nitrite], the CC50 at 24 h was over 90 µM.

The data set is the same for the next values; noted with them: rat, gh3-tre-luc cells, AC50 (uM) modified / 1000, Tox21_110001=Tox21_300394; viability, 1 nM T3 present, 24 h.
`O=C(O)C(F)(F)C(F)(F)C(F)(F)C(F)(F)C(F)(F)F` [Perfluorohexanoic acid] registered a CC50 at 24 h of over 90 µM.

Staying with this data set, now noted: rat, gh3-tre-luc cells, AC50 (uM) modified / 1000, Tox21_110001=Tox21_300606; viability, 1 nM T3 present, 24 h.
`O=C(O)C(F)(F)C(F)(F)C(F)(F)C(F)(F)C(F)(F)C(F)(F)C(F)(F)C(F)(F)C(F)(F)C(F)(F)F` [Perfluoroundecanoic acid] came in with a CC50 at 24 h of over 90 µM.

Staying with this data set, now noted: rat, gh3-tre-luc cells, AC50 (uM) modified / 1000, Tox21_110001=Tox21_300608; viability, 1 nM T3 present, 24 h.
With `O=C(O)C(F)(F)C(F)(F)C(F)(F)C(F)(F)C(F)(F)C(F)(F)C(F)(F)C(F)(F)C(F)(F)F` [Perfluorodecanoic acid], the CC50 at 24 h is over 90 µM.

The same data set, now with this note: rat, gh3-tre-luc cells, AC50 (uM) modified / 1000, Tox21_110001=Tox21_300616; viability, 1 nM T3 present, 24 h.
With `O=C(O)C(F)(F)C(F)(F)C(F)(F)C(F)(F)C(F)(F)C(F)(F)F` [Perfluoroheptanoic acid], the CC50 at 24 h is over 90 µM.

The same data set, now with this note: rat, gh3-tre-luc cells, AC50 (uM) modified / 1000, Tox21_110001=Tox21_400083; viability, 1 nM T3 present, 24 h.
`O=S(=O)(O)C(F)(F)C(F)(F)C(F)(F)C(F)(F)C(F)(F)C(F)(F)C(F)(F)C(F)(F)F` [Perfluorooctanesulfonic acid] came in with a half-maximal cytotoxic concentration (CC50) at 24 h of over 90 µM.

For the origin of these results see publication PMC6792352, “Limited Chemical Structural Diversity Found to Modulate Thyroid Hormone Receptor in the Tox21 Chemical Library” (Environmental Health Perspectives, 2019).
